Measured values reported in patent US9643959B2, “Tubulin polymerization inhibitor and method for synthesizing same” (KOREA RESEARCH INSTITUTE OF BIOSCIENCE AND BIOTECHNOLOGY, priority 2013, dated 2017).

Tested on: cell proliferation
Assay: screening of the small-molecule library for materials that can inhibit cell proliferation
Assay type: cell-based
Conditions: screen of small-molecule library; no data or method given

SMILES: CCOC(=O)Cn1c(C)c(/C=N/NC(=O)c2cc3c(ccc4ccccc43)o2)c2ccccc21 [Compound 7, (E)-ethyl 2-(2-methyl-3-((2-(naphtho[2,1-b]furan-2-carbonyl)hydrazono)methyl)-1H-indol-1-yl)acetate]
- activity of inhibiting mitosis: has an activity of inhibiting mitosis
